Source: patent US6117878A, “8-phenyl- or 8-cycloalkyl xanthine antagonists of A2B human adenosine receptors” (priority 1998, dated 2000)
“Also recorded” adds a separate entry of the source.

Legend:
[1] = target: T1, recombinant human A1 adenosine receptors (Homo sapiens, UniProt P30542); test: Competition binding screen, A1 (Table 1)
T1 construct: expressed in transfected cells
T1 sequence (P30542 1-326): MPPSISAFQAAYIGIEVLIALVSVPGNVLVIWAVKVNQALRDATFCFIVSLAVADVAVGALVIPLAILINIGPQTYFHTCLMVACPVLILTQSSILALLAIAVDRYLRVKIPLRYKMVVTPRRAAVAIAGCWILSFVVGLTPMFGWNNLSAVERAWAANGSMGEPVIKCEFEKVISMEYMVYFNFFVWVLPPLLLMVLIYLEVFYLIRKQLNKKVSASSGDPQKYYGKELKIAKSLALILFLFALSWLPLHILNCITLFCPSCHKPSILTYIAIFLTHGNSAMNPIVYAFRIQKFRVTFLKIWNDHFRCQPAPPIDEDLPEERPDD
From the text: (§1) A series of compounds was screened to identify potent A2B selective antagonists. This was done in competition binding assays using recombinant human A1, A2A, A2B or A3 adenosine receptors, similar to that illustrated in FIGS. 2A and 2B.

[2] = target: T2, recombinant human A2A adenosine receptors (Homo sapiens, UniProt P29274); test: Competition binding screen, A2A (Table 1)
T2 construct: expressed in transfected cells
From the text: (§2) This was done in competition binding assays using recombinant human A1, A2A, A2B or A3 adenosine receptors, similar to that illustrated in FIGS. 2A and 2B.

[3] = target: T3, recombinant human A3 adenosine receptors (Homo sapiens, UniProt P0DMS8); test: Competition binding screen, A3 (Table 1)
T3 construct: expressed in transfected cells; host or cells: cells expressing the recombinant receptor
T3 sequence (P0DMS8 1-318): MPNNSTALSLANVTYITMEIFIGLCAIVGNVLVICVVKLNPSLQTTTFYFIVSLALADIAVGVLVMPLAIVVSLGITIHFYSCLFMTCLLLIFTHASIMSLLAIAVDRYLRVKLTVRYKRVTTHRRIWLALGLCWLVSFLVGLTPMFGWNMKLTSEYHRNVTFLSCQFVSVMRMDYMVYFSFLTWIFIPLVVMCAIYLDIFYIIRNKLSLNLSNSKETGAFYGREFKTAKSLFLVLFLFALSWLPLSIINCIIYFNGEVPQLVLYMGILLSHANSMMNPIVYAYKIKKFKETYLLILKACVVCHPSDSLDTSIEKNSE
From the text: as §1

[4] = target: T4, recombinant human A2B adenosine receptors (Homo sapiens, UniProt P29275); test: Competition binding screen, A2B (Table 1); design: expressed in transfected cells; host or cells: cells expressing the recombinant receptor
T4 sequence (P29275 1-332): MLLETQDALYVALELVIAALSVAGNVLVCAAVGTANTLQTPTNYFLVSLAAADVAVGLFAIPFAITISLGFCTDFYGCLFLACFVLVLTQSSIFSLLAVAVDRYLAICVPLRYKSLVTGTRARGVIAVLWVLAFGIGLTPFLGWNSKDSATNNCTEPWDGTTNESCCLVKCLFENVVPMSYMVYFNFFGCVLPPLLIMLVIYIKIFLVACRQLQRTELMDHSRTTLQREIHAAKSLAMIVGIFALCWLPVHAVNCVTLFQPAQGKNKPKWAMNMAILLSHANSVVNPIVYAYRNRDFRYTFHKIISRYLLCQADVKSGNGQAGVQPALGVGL
From the text: as §2

human HMC-1 mast cells [5] = test: Intracellular Ca2+ accumulation in HMC-1 mast cells (FURA); format: cell-based; conditions: FIG. 1A
human HMC-1 mast cells [6] = test: Cyclic AMP accumulation in HMC-1 mast cells (radioimmunoassay); format: cell-based; conditions: FIG. 1B
Experimental: Functional Responses Of Human HMC-1 Mast Cells to NECA and IB-MECA
In tests as described in "Canine Mast Cell Adenosine Receptors: Cloning and Expression of the A3 Receptor and Evidence that Degranulation is Mediated by the A2B Receptor," Molecular Pharmacology, 52:1-15 (1997) to, Auchampapch et al., that reference being incorporated herein by reference, intact cells were treated with the A3-selective agonist IB-MECA and the nonselective agonist NECA.
FIGS. 1A and 1B show (A) Intracellular Ca^2+ accumulation measured in cells pretreated with the Ca^2+ -sensitive fluorescent reporter, FURA and (B) Cyclic AMP accumulation measured by radioimmunoassay. The results are typical of triplicate experiments.

[7] = target: T5, rhA2B adenosine receptors (Homo sapiens, UniProt P29275); test: NECA-stimulated cyclic AMP accumulation in HEK 293 cells transfected with rhA2B adenosine receptors, Schild analysis; format: cell-based; conditions: cAMP, cells expressing rhA2B
T5 construct: expressed in transfected cells; host or cells: HEK 293 cells, stably transfected
T5 sequence (P29275 1-332): T4 sequence (P29275 1-332)
From the text: Agonists were used to modulate cAMP in HEK 293 cells stably transfected the rhA2B adenosine receptors or rhA3 adenosine receptors.

[8] = target: T4, recombinant human A2B adenosine receptors; test: Calcium mobilization in HEK-293 cells transfected with recombinant human A2B adenosine receptors (FURA); format: cell-based; design: expressed in transfected cells; host or cells: cells expressing the recombinant receptor
Experimental: The activation of the phospholipase C pathway leads to intracellular calcium mobilization.
Calcium mobilization was measured in cells preloaded with FURA.

[9] = target: T4, recombinant human A2B adenosine receptors; test: IP3 generation in HEK 293 cells transfected with recombinant human A2B adenosine receptors
[10] = target: T3, recombinant human A3 adenosine receptors; test: Competition radioligand binding to rhA3 adenosine receptors (Example 2); conditions: other subtypes than A2B; FIG. 2 and Table 1
adenosine receptors = conditions: cited from earlier work
[11] = target: T4, recombinant human A2B adenosine receptors; test: Competition for [3H]DPX binding to rhA2B adenosine receptors (Example 2); design: expressed in transfected cells; host or cells: cells expressing the recombinant receptor

T2 sequence (P29274 whole entry): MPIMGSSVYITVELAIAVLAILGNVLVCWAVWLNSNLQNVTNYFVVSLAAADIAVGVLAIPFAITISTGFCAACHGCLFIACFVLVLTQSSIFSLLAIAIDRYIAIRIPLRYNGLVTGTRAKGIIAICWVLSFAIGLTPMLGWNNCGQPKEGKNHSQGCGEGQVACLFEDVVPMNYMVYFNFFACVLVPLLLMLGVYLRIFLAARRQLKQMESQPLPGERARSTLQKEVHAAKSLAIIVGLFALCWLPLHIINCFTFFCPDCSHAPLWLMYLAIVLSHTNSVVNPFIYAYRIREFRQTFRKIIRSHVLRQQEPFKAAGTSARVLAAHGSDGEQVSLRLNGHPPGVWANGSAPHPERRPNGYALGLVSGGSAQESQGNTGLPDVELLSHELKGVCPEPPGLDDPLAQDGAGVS

Row | SMILES | Ki [1] | Ki [2] | Ki [3] | Ki [4] | Stimulation of calcium mobilization (human HMC-1 mast cells [5]; worded as canine mast cells) | Intracellular Ca2+ accumulation / calcium mobilization (human HMC-1 mast cells [5]; human mast cell line HMC-1) | Stimulation of cyclic AMP accumulation (human HMC-1 mast cells [6]; worded as canine mast cells) | Cyclic AMP accumulation (human HMC-1 mast cells [6]; human mast cell line HMC-1) | Functional response to agonist [7] | Increase in intracellular Ca2+ content ([8]; human A2B transfected cells) | Increase in IP3 formation ([9]; NECA at 10 μM, rhA2B transfected HEK 293) | Antagonism of other adenosine receptor subtypes [10] | Binding to adenosine receptors (literature) (adenosine receptors; Lunell et al.) | Block of adenosine receptors (literature) (adenosine receptors; enprofylline: therapeutic concentration range of 20-50 uM, examined at A1 and A2A only) | Affinity for human A2B versus human A3 adenosine receptors ([11]; competition binding, FIGS. 2A and 2B) | Block of recombinant human A2B adenosine receptors ([11]; therapeutic concentration range of 20-50 μM, FIG. 2 and Table 1) | Block of Ca2+ response induced by 1 μM NECA ([8]; 100 μM antagonist) | Block of increase in IP3 produced by 10 μM NECA ([9]; 250 μM antagonist)
1 | O=C(O)C=Cc1ccc(-c2nc3c([nH]2)c(=O)n(CC2CCCCC2)c(=O)n3CC2CCCCC2)cc1 [BW-A493] | 4.98 ± 0.553 µM | 1.52 ± 0.797 µM | 0.922 ± 0.399 µM | 0.198 ± 0.052 µM |  |  |  |  |  |  |  |  |  |  |  |  |  | 
2 | CCNC(=O)[C@H]1O[C@@H](n2cnc3c(N)ncnc32)[C@H](O)[C@@H]1O [NECA, 5-N-ethylcarboxamidoadenosine] |  |  |  |  | stimulates canine mast cells to mobilize calcium | stimulates human mast cells to mobilize calcium; also recorded: causes intracellular Ca^2+ and cyclic AMP accumulation | stimulates canine mast cells to mobilize calcium and to accumulate cyclic AMP | stimulates human mast cells to mobilize calcium and to accumulate cyclic AMP; also recorded: causes intracellular Ca^2+ and cyclic AMP accumulation | dose-dependent functional response | dose-dependent increase in intracellular Ca^2+ content | 3.5 fold |  |  |  |  |  |  | 
3 | CCCn1c(=O)[nH]c(=O)c2[nH]cnc21 [enprofylline] | 156 µM |  |  |  |  |  |  |  |  |  |  | much weaker antagonist of other adenosine receptor subtypes | bind weakly to adenosine receptors | found not to block adenosine receptors | higher affinities for human A2B adenosine receptors than for human A3 adenosine receptors | blocks recombinant human A2B adenosine receptors | totally blocks | able to block the increase in IP3
